Results from paper PMC9820444, “Design and Synthesis of Acridine-Triazole and Acridine-Thiadiazole Derivatives and Their Inhibitory Effect against Cancer Cells” (International Journal of Molecular Sciences, 2022).
Where two headings read alike, the source gives them in different places. Marks after values point to notes of the source that are not given here.

Columns and labels:
[1] = tested on: bladder cancer cells (T24); assay: MTT antiproliferative assay, T24; assay type: cell-based, human; conditions: Homo sapiens, read-out: Effect against cell viability (IC50), T24
[2] = tested on: large cell lung cancer cells (NCI-H460); assay: MTT antiproliferative assay, NCI-H460; assay type: cell-based, human; conditions: Homo sapiens, read-out: Effect against cell viability (IC50), NCI-H460
zebrafish embryos = tested on: zebrafish embryos; parameters: mortality rate of zebrafish embryos: dose or concentration left out as unconfirmed; conditions: for MAR (malformation rate) / MOR (mortality rate): zebrafish embryos 72 hpf
MGC80-3 cells [3] = assay: Cell cycle analysis by flow cytometry, MGC80-3; assay type: cell-based, human; conditions: MGC80-3, 5.52 μM (IC50), 48 h; control 8.91%
Procedure: Compared to control, both compounds 4h and 5d interfered with the cell cycles of T24 and MGC80-3 cells, respectively.
(§1) The apoptosis assay and the cell cycle analysis were carried out by cytometry (FACSVerse, BD, Piscataway, NJ, USA) at an excitation wavelength of 488 nm according to the method described in the literature with slight modifications. The cells were seeded at 2 × 10^6/well and washed by cold PBS. The buffer solutions were prepared using 0.1 M pH 7.4 Hepes/NaOH, 1.4 M NaCl, and 25 mM CaCl2.

[4] = tested on: human normal liver cells (LO2); assay: Cytotoxicity against normal liver cells LO2; assay type: cell-based; conditions: Homo sapiens, MTT, read-out: Effect against cell viability (IC50), LO2
[5] = tested on: human gastric cancer cells-803 (MGC-803); assay: MTT antiproliferative assay, MGC-803; assay type: cell-based; conditions: Homo sapiens, MGC-803, MTT, read-out: Effect against cell viability (IC50), MGC-803
MGC80-3 cells [6] = assay: Apoptosis by Annexin V-FITC/PI flow cytometry, MGC80-3; assay type: cell-based, human; conditions: for apoptosis percentage (early and late): control 0.586%
Procedure: The apoptosis ratios of MGC80-3 or T24 cell lines induced by the selected compounds at the concentration of IC50 and 0.5 IC50 were quantitatively determined by flow cytometry. Four quadrant images (Q1, Q2, Q3 and Q4) were observed by flow cytometric analysis. […] […] After treatment with compound 6h, 5.62% (3.43 μM) and 14.25% (6.85 μM) of the cells were apoptotic. These were higher percentages than the one observed in the control (0.586%). […] The results evidently illustrate that representative compounds 5d and 6h or 4h and 6h could suppress cell proliferation by inducing apoptosis in the early apoptotic period.
as §1

[7] = tested on: human foreskin fibroblasts (HFF); assay: MTT antiproliferative assay, HFF; assay type: cell-based; conditions: Homo sapiens, Fibroblast, read-out: Effect against cell viability (IC50), HFF
[8] = tested on: subintestinal veins (SIVs) in zebrafish embryos; assay: Zebrafish angiogenesis assay (subintestinal veins, NBT/BCIP staining); assay type: in vivo; conditions: 1 mg/mL
From the text: Currently, the zebrafish has emerged as a valuable model organism to substitute traditional models for studying angiogenesis inhibitors. The genes of zebrafish show 70–80% similarity to humans, and the vascular structure of zebrafish has high similarity to that of other vertebrates. Therefore, the subintestinal veins (SIVs) in the zebrafish embryos are used as evaluation indicators for anti-angiogenesis inhibitors. In this study, NBT/BCIP vascular staining was used to observe the angiogenesis effect of representative drugs (4h, 4f, 5d, 5h, 6g and 6h) in a zebrafish model. […] Compared with the blank control group, the area of the meshed pattern vessel and the number of vascular branches in the network decreased after the administration of compounds 4h, 5d, 5h and 6h.
The 24 hpf zebrafish embryos were dechorionated with a 1 gL^−1 pronase treatment and maintained in distilled water in 12-well cell culture plates (each well contained 20 embryos). A negative control group containing zebrafish embryos in distilled water and a vehicle treatment group that was treated with 2% dimethyl sulfoxide (DMSO) were prepared. The anti-angiogenic compounds were diluted to 1 mg/mL. After incubating at 28 °C for […], the embryos were immersed in 4% paraformaldehyde and dehydrated by gradient ethanol. Subsequently, the embryos were balanced in NTMT buffer (5 M NaCl + 1 M Tris [pH 9.0–9.5] + 1 M MgCl2+ 10% Tween), and nitrotetrazolium blue chloride (NBT) and p-toluidine salt (BCIP) staining were performed. To evaluate the effect of compounds on the angiogenesis of zebrafish embryos, the growth of embryonic sub-intestinal veins (SIVs) at 72 hpf was observed using an IX71 Olympus microscope (Hamburger, Germany). The length of the SIVs was calculated using the image J 1.8.0 software (Bethesda, MD, USA).

[9] = tested on: hepatocellular carcinoma bel-7404 (BEL-7404); assay: MTT antiproliferative assay, BEL-7404; assay type: cell-based, human; conditions: Homo sapiens, read-out: Effect against cell viability (IC50), BEL-7404

## COc1ccc2nc3ccccc3c(-n3c(-c4ccc([N+](=O)[O-])cc4)n[nH]c3=S)c2c1 [5d, 4-(2-methoxyacridin-9-yl)-5-(4-nitrophenyl)-2,4-dihydro-3H-1,2,4-triazole-3-thione]
[1]
  IC50: 15.9 ± 1.38 µM
[2]
  IC50: 19.4 ± 1.58 µM
Zebrafish embryos
  mortality rate of zebrafish embryos: ~0%
Zebrafish embryos; 2.0 mg.L^−1
  malformation rate of zebrafish embryos: less than 15%
Zebrafish embryos; 1 mg/mL
  MAR (malformation rate): 5% ^b
  MOR (mortality rate): 0%
Zebrafish embryos; 1.5 mg/mL
  MAR (malformation rate): 10% ^a
  MOR (mortality rate): 0%
Zebrafish embryos; 2 mg/mL
  MAR (malformation rate): 10% ^c
  MOR (mortality rate): 0%
MGC80-3 cells [3]
  G2 phase population: 13.32%
[4]
  IC50: 51.8 ± 3.46 µM
[5]
  IC50: 5.52 ± 1.04 µM
MGC80-3 cells [6]; MGC80-3, 0.5 IC50 (5d 2.76 μM; 6h 3.43 μM)
  apoptosis percentage (early and late): 6.616%
MGC80-3 cells [6]; MGC80-3, IC50 (5d 5.52 μM; 6h 6.85 μM), 24 h, control 93.0%
  Q4 (live) cells: 81.2%
MGC80-3 cells [6]; MGC80-3, IC50 (5d 5.52 μM; 6h 6.85 μM)
  apoptosis percentage (early and late): 17.51%
[7]
  IC50: 62.9 ± 1.9 µM
[8]; 72 hpf zebrafish embryos
  reduction in the vessel length (SIVs) compared to the mean vessel length for the controls: ~50%
[8]; zebrafish embryos, compared with blank control group
  area of the meshed pattern vessel and number of vascular branches in the network: decreased
[9]
  IC50: 25.1 ± 2.89 µM
